# Experimental data reported in ChEMBL document CHEMBL3991601, “The target landscape of clinical kinase drugs” (Science, 2017).
# Activity calls are given as the source filed them.
# Legend:
# Ephrin type-B receptor 6 = target: T1, Ephrin type-B receptor 6 (Homo sapiens, UniProt O15197)
# T1 sequence (O15197 whole entry): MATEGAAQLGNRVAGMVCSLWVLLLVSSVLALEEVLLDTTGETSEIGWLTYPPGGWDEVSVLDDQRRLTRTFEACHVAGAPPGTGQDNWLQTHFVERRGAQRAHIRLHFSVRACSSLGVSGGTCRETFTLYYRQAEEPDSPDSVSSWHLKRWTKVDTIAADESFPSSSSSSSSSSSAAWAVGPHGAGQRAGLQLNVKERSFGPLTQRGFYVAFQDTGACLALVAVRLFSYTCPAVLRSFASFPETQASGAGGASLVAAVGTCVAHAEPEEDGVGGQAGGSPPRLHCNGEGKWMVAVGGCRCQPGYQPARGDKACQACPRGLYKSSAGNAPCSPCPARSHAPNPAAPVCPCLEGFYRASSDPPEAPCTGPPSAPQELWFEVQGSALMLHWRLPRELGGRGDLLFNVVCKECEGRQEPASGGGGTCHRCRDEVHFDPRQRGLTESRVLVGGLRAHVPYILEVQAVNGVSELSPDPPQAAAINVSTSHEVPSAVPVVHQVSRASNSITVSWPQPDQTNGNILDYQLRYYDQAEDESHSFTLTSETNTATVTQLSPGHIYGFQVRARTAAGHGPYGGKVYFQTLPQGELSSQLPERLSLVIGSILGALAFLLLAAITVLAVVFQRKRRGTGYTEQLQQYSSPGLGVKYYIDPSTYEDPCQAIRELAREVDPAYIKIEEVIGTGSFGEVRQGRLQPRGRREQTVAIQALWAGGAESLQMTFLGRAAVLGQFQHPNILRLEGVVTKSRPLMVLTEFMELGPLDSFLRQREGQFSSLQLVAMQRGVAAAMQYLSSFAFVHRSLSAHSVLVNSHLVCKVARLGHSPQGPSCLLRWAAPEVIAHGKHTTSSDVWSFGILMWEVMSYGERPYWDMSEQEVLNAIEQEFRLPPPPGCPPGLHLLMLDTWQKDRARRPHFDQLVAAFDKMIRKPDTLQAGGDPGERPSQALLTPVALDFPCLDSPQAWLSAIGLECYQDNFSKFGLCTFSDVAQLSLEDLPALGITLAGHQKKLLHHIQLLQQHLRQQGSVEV
# [1] = target: T2, Mitogen-activated protein kinase kinase kinase 5 (Homo sapiens, UniProt Q99683)
# T2 sequence (Q99683 whole entry): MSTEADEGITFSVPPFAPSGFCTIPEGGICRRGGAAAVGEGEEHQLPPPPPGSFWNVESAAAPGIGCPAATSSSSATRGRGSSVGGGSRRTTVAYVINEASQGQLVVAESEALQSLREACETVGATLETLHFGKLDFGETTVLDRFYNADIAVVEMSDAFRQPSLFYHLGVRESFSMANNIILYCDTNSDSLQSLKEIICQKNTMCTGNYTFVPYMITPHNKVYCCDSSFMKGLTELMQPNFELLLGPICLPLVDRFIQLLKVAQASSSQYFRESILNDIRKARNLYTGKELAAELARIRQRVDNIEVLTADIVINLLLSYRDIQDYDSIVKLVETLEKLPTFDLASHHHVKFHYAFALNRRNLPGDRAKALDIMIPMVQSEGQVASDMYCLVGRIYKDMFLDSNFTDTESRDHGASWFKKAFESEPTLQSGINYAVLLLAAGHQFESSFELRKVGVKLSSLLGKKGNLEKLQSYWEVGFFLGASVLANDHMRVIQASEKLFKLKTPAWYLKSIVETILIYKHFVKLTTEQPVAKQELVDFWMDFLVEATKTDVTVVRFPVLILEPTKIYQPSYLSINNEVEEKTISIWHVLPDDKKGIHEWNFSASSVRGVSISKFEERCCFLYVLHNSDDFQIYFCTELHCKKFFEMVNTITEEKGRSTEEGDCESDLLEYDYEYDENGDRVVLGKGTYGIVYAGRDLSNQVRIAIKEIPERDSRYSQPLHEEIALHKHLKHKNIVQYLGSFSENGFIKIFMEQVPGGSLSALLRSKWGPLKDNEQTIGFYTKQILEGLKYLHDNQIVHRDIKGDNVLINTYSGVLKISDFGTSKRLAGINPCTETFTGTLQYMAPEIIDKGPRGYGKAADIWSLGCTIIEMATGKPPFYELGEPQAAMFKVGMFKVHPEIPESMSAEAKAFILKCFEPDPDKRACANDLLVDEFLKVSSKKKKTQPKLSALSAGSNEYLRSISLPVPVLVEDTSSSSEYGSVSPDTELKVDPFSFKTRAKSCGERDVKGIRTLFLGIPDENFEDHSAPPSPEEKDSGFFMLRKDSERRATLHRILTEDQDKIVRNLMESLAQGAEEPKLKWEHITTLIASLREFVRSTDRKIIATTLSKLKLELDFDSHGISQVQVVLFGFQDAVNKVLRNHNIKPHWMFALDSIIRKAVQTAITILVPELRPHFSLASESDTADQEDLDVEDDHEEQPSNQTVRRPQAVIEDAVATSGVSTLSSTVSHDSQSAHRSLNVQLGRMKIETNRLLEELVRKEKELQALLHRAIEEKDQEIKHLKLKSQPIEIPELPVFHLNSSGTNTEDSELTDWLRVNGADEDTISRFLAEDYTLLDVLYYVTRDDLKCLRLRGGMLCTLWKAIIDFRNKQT
# Further: in the data inactive means no Kd found up to 30 µM.
Kd (Ephrin type-B receptor 6),Kd [1],SMILES
> 30 µM (inactive),> 30 µM (inactive),Cc1nc(Nc2n[nH]c3c2CN(C(=O)N[C@H](CN(C)C)c2ccccc2)C3(C)C)c2sccc2n1 [PF-03758309]
> 30 µM (inactive),> 30 µM (inactive),Cc1cnc(NC(=O)Nc2cc(Br)c(C)cc2OC[C@@H]2CNCCO2)cn1 [RABUSERTIB]
> 30 µM (inactive),> 30 µM (inactive),CO[C@H]1C[C@@H]2CC[C@@H](C)[C@@](O)(O2)C(=O)C(=O)N2CCCC[C@H]2C(=O)O[C@H]([C@H](C)C[C@@H]2CC[C@@H](OP(C)(C)=O)[C@H](OC)C2)CC(=O)[C@H](C)/C=C(\C)[C@@H](O)[C@@H](OC)C(=O)[C@H](C)C[C@H](C)/C=C/C=C/C=C/1C [RIDAFOROLIMUS]
> 30 µM (inactive),> 30 µM (inactive),N#CC1(c2ccc(NC(=O)c3cccnc3NCc3ccncc3)cc2)CCCC1 [RIVOCERANIB]
> 30 µM (inactive),> 30 µM (inactive),O=c1[nH]ccc2cc(OC3CCNCC3)ccc12 [SAR-407899 FREE BASE]
> 30 µM (inactive),> 30 µM (inactive),Cn1cc(-c2cnn3c(N)c(Br)c([C@@H]4CCCNC4)nc23)cn1 [SCH-900776]
> 30 µM (inactive),> 30 µM (inactive),CO[C@H]1C[C@@H]2CC[C@@H](C)[C@@](O)(O2)C(=O)C(=O)N2CCCC[C@H]2C(=O)O[C@H]([C@H](C)C[C@@H]2CC[C@@H](O)[C@H](OC)C2)CC(=O)[C@H](C)/C=C(\C)[C@@H](O)[C@@H](OC)C(=O)[C@H](C)C[C@H](C)/C=C/C=C/C=C/1C [SIROLIMUS]
0.451 µM,> 30 µM (inactive),CCS(=O)(=O)c1cccc(-c2cc(C(=O)NC3CCN(C)CC3)c(C)c3[nH]c4ncc(C)cc4c23)c1 [TAK-901]
> 30 µM (inactive),> 30 µM (inactive),CO[C@H]1C[C@@H]2CC[C@@H](C)[C@@](O)(O2)C(=O)C(=O)N2CCCC[C@H]2C(=O)O[C@H]([C@H](C)C[C@@H]2CC[C@@H](OC(=O)C(C)(CO)CO)[C@H](OC)C2)CC(=O)[C@H](C)/C=C(\C)[C@@H](O)[C@@H](OC)C(=O)[C@H](C)C[C@H](C)/C=C/C=C/C=C/1C [TEMSIROLIMUS]
0.259 µM,> 30 µM (inactive),COc1cc2c(Nc3ccc(Cl)c(Cl)c3F)ncnc2cc1OC[C@@H]1C[C@@H]2CN(C)C[C@@H]2C1 [TESEVATINIB]
> 30 µM (inactive),> 30 µM (inactive),O=C(Cc1ccc(-c2ccc(OCCN3CCOCC3)cc2)cn1)NCc1ccccc1 [TIRBANIBULIN]
> 30 µM (inactive),> 30 µM (inactive),O=C1NC(=O)[C@@H](c2cn3c4c(cccc24)CCC3)[C@@H]1c1c[nH]c2ccccc12 [TIVANTINIB]
3.34 µM (active),> 30 µM (inactive),C[C@@H](NC(=O)c1ncnc(N)c1Cl)c1ncc(C(=O)Nc2cc(C(F)(F)F)c(Cl)cn2)s1 [TOVORAFENIB]
> 30 µM (inactive),> 30 µM (inactive),Cn1ncc(Cl)c1-c1cc(C(=O)N[C@H](CN)Cc2ccc(F)c(F)c2)oc1Cl [UPROSERTIB]
0.026 µM (active),> 30 µM (inactive),CC(C)c1cc(CNc2nc(Nc3cc(C4CC4)[nH]n3)cc(N3CCN(C)CC3)n2)on1 [XL-228]
> 30 µM (inactive),50.5 µM (active),C[C@@H](N)c1ccc(C(=O)Nc2ccnc3[nH]ccc23)cc1 [Y-39983]
> 30 µM (inactive),> 30 µM (inactive),CN1C/C=C/CCOc2cccc(c2)-c2ccnc(n2)Nc2cccc(c2)C1 [ZOTIRACICLIB]

SMILES,Kd (Ephrin type-B receptor 6),Kd [1]
CCCCCCCCCCCCCCCCCCOP(=O)([O-])OC1CC[N+](C)(C)CC1 [PERIFOSINE],> 30 µM (inactive),> 30 µM (inactive)
CNC(=O)c1cc(Oc2ccc(NC(=O)Nc3cc(C(C)(C)C)nn3-c3ccc4ncccc4c3)c(F)c2)ccn1 [REBASTINIB],> 30 µM (inactive),> 30 µM (inactive)
CN1CCN(CCOc2cc(OC3CCOCC3)c3c(Nc4c(Cl)ccc5c4OCO5)ncnc3c2)CC1 [SARACATINIB],3.6 µM (active),> 30 µM (inactive)
Cc1cc(Nc2ncnc3ccc(NC4=NC(C)(C)CO4)cc23)ccc1Oc1ccn2ncnc2c1 [TUCATINIB],> 30 µM (inactive),> 30 µM (inactive)
